The results in this text go back to patent US12624023B2, “Sulfonylurea derivatives and uses thereof” (NodThera Limited, priority 2019, dated 2026).

Bounds are passed on as bounds.

A word on the IC50: it is the concentration that gives 50% inhibition.

Assay [1] has as its system IL-1β release upon NLRP3 activation in human whole blood. The assay can be described thus: Whole blood (WB) assay (IL-1β release, LPS priming + ATP stimulation, HTRF). Conditions: heparin, diluted 9:5 with media, LPS 1 μg/ml 3 h, compound 30 min, ATP 5 mM 1 h, IL-1β by HTRF. The class given is cell-based. A digest of the protocol:
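Heparinised human whole blood, diluted 9:5 in medium, was primed with LPS (1 μg/ml final) for 3 h. Compound was then added for 30 min, followed by ATP (5 mM final) for 1 h. Secreted IL-1β was measured in the media by HTRF (655/620 nm).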

For assay [2], the system named is IL-1β release upon NLRP3 activation in peripheral blood mononuclear cells (PBMC). The assay can be described thus: PBMC IC50 determination assay (IL-1β release, LPS priming + ATP stimulation, HTRF). The class given is cell-based. Conditions: PBMC from buffy coats; LPS 1 μg/ml 3 h, compound 30 min, ATP 5 mM 1 h; IL-1β by HTRF. The essentials:
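Buffy-coat PBMC were primed with LPS (1 μg/ml) for 3 h, given compound for 30 min, then stimulated with 5 mM ATP for 1 h. IL-1β released into the medium was quantified by HTRF, reading 655 and 620 nm.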
A general note: TR-FRET usually uses a lanthanide donor and a delayed reading to cut background.

As to `Cc1sc2c(c1NC(=O)NS(=O)(=O)N(c1cnn(C)c1F)C1CCN(C)CC1)CCC2` [Compound 120, 1-[(5-Fluoro-1-methyl-1H-pyrazol-4-yl)(1-methylpiperidin-4-yl)sulfamoyl]-3-{2-methyl-4H,5H,6H-cyclopenta[b]thiophen-3-yl}urea], the IC50 is 1000 to 3000 nM in assay [1] and under 100 nM in assay [2].
The matching figures for `CC(C)c1cc(NC(=O)NS(=O)(=O)N(c2cnn(C)c2)C2CCCN(C)C2)c(C(F)(F)F)s1` (stereo not drawn) [Compound 121, 1-[(1-Methyl-1H-pyrazol-4-yl)(1-methylpiperidin-3-yl)sulfamoyl]-3-[5-(propan-2-yl)-2-(trifluoromethyl)thiophen-3-yl]urea]: 3000 to 10000 nM and 100 to 500 nM.
For `CN1CCCC(N(c2cnn(C)c2)S(=O)(=O)NC(=O)Nc2c(C(C)(C)C)sc3c2CCC3)C1` (stereo not drawn) [Compound 122, 3-{2-Tert-butyl-4H,5H,6H-cyclopenta[b]thiophen-3-yl}-1-[(1-methyl-1H-pyrazol-4-yl)(1-methylpiperidin-3-yl)sulfamoyl]urea], the IC50 was 10000 to 20000 nM in assay [1] and 500 to 1000 nM in assay [2].
In the same order, the values of `CC(C)c1sc(Cl)cc1NC(=O)NS(=O)(=O)N(c1cnn(C)c1)C1CCN(C)CC1` [Compound 123, 3-[5-Chloro-2-(propan-2-yl)thiophen-3-yl]-1-[(1-methyl-1H-pyrazol-4-yl)(1-methylpiperidin-4-yl)sulfamoyl]urea] are 1000 to 3000 nM and under 100 nM.
Take `Cc1nsc(C(C)C)c1NC(=O)NS(=O)(=O)N(c1cnn(C)c1)C1CCCN(C)C1` (stereo not drawn) [Compound 124, 1-[(1-Methyl-1H-pyrazol-4-yl)(1-methylpiperidin-3-yl)sulfamoyl]-3-[3-methyl-5-(propan-2-yl)-1,2-thiazol-4-yl]urea]: the IC50 in assay [1] was over 20000 nM; in assay [2], over 10000 nM.
In the same order, the values of `Cc1sc2c(c1NC(=O)NS(=O)(=O)N(c1cnn(C)c1)[C@H]1CCN(C)C1)CCC2` [Compound 125, 1-[(1-Methyl-1H-pyrazol-4-yl)[(3S)-1-methylpyrrolidin-3-yl]sulfamoyl]-3-{2-methyl-4H,5H,6H-cyclopenta[b]thiophen-3-yl}urea] are under 1000 nM and under 100 nM.
With `Cc1sc2c(c1NC(=O)NS(=O)(=O)N(c1cnn(C)c1)[C@@H]1CCN(C)C1)CCC2` [Compound 126, 1-[(1-Methyl-1H-pyrazol-4-yl)[(3R)-1-methylpyrrolidin-3-yl]sulfamoyl]-3-{2-methyl-4H,5H,6H-cyclopenta[b]thiophen-3-yl}urea], the results for the IC50 in assay [1] and in assay [2] were under 1000 nM and under 100 nM, respectively.
Take `Cc1cc(NC(=O)NS(=O)(=O)N(c2cnn(C)c2)[C@H]2CCN(C)C2)c(C(C)C)s1` [Compound 127, 1-[(1-Methyl-1H-pyrazol-4-yl)[(3S)-1-methylpyrrolidin-3-yl]sulfamoyl]-3-[5-methyl-2-(propan-2-yl)thiophen-3-yl]urea]: the figures for the IC50 in assay [1] and in assay [2] were under 1000 nM and under 100 nM, respectively.
In the same order, the values of `CC(C)c1sc(Cl)cc1NC(=O)NS(=O)(=O)N(c1cnn(C)c1)[C@H]1CCN(C)C1` [Compound 128, 3-[5-Chloro-2-(propan-2-yl)thiophen-3-yl]-1-[(1-methyl-1H-pyrazol-4-yl)-[(3S)-1-methylpyrrolidin-3-yl]sulfamoyl]urea] are under 1000 nM and under 100 nM.
`CC(C)c1sc(Cl)cc1NC(=O)NS(=O)(=O)N(c1cnn(C)c1)[C@@H]1CCN(C)C1` [Compound 129, 3-[5-Chloro-2-(propan-2-yl)thiophen-3-yl]-1-[(1-methyl-1H-pyrazol-4-yl)-[(3R)-1-methylpyrrolidin-3-yl]sulfamoyl]urea]: the IC50 in assay [1] was under 1000 nM; in assay [2] it was under 100 nM.
In the same order, the values of `Cc1cc(NC(=O)NS(=O)(=O)N(c2cnn(C)c2)[C@@H]2CCN(C)C2)c(C(C)C)s1` [Compound 130, 1-[(1-Methyl-1H-pyrazol-4-yl)[(3R)-1-methylpyrrolidin-3-yl]sulfamoyl]-3-[5-methyl-2-(propan-2-yl)thiophen-3-yl]urea] are under 1000 nM and under 100 nM.
`CC(C)c1sc(C#N)cc1NC(=O)NS(=O)(=O)N(c1cnn(C)c1)C1CCCN(C)C1` (stereo not drawn) [Compound 131, 3-[5-Cyano-2-(propan-2-yl)thiophen-3-yl]-1-[(1-methyl-1H-pyrazol-4-yl)(1-methylpiperidin-3-yl)sulfamoyl]urea]: the results for the IC50 in assay [1] and in assay [2] were 3000 to 10000 nM and 500 to 1000 nM, respectively.
